Laboratory results reported in US20230146455A1, “TREATMENT OF INFLAMMATORY DISEASES WITH PEPTIDES AND PHARMACEUTICAL COMPOSITIONS” (Yuyu Pharma, Inc., priority 2020, published 2023).
“And” between values parts separate entries of the source, which are not always exact repeats. Equal entries are not always repeated. “Also recorded” adds a separate entry of the source. Where a SMILES comes first, the peptide text is derived from it. [ ]: non-standard residue; d: D form. Hyp = O=C(O)[C@@H]1C[C@@H](O)CN1

System: human PBMCs
Experiment: PBMC cell counts (total, live, viability; trypan blue, Countess) with and without LPS and test articles (Example 9)
Type: cell-based
How it was run: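 Human PBMCs were pretreated 2 h with test articles (0.001–100 uM) or 0.5% DMSO vehicle, then given LPS at 5 ug/ml or no LPS, in triplicate. After 24 hr, total and live cells and viability were counted by 1:1 trypan blue staining on an automated counter.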

[1] = PBMC + LPS(5 ug/ml), test article 100 uM, Mean
[2] = PBMC + LPS(5 ug/ml), test article 100 uM, single replicates
[3] = PBMC + compound 0.01 uM, no LPS, 24 hr
[4] = PBMC + compound 0.1 uM, no LPS, 24 hr
[5] = PBMC + compound 1 uM, no LPS, 24 hr
[6] = PBMC + compound 10 uM, no LPS, 24 hr
[7] = PBMC + compound 100 uM, no LPS, 24 hr
[8] = PBMC + test article 0.01 uM, no LPS, Mean
[9] = PBMC + test article 0.01 uM, no LPS, single replicates
[10] = PBMC + test article 0.1 uM, no LPS, Mean
[11] = PBMC + test article 0.1 uM, no LPS, single replicates
[12] = PBMC + test article 1 uM, no LPS, Mean
[13] = PBMC + test article 1 uM, no LPS, single replicates
[14] = PBMC + test article 10 uM, no LPS, Mean
[15] = PBMC + test article 10 uM, no LPS, single replicates
[16] = PBMC + test article 100 uM, no LPS, Mean
[17] = PBMC + test article 100 uM, no LPS, single replicates
[18] = PBMC without LPS, test article 0.01 uM, Mean
[19] = PBMC without LPS, test article 0.01 uM, single replicates
[20] = PBMC without LPS, test article 0.1 uM, Mean
[21] = PBMC without LPS, test article 0.1 uM, single replicates
[22] = PBMC without LPS, test article 1 uM, Mean
[23] = PBMC without LPS, test article 1 uM, single replicates
[24] = PBMC without LPS, test article 10 uM, Mean
[25] = PBMC without LPS, test article 10 uM, single replicates
[26] = PBMC without LPS, test article 100 uM, Mean
[27] = PBMC without LPS, test article 100 uM, single replicates

Compound: CC(C)C[C@H](NC(=O)CNC(=O)[C@H](CC(=O)O)NC(=O)[C@H](CCC(N)=O)NC(=O)CNC(=O)[C@@H]1C[C@@H](O)CN1)C(=O)N[C@@H](C)C(=O)NCC(=O)N1CCC[C@H]1C(=O)N[C@@H](CCCCN)C(=O)O [YY-101] (H-[Hyp]GQDGLAGPK-OH; N-terminus and C-terminus assumed)
- Live cell [1]: 5.8 10^5/ml
- Total cell count [1]: 7.8 10^5/ml
- Live cell [2]: 6.3 10^5/ml and 6.2 10^5/ml and 5.0 10^5/ml
- Total cell count [2]: 8.7 10^5/ml and 8.8 10^5/ml and 5.8 10^5/ml
- Viability [2]: 73.0% and 70.0% and 87.0%
- Live cell [3]: 5.0 ± 0.2 10^5/ml
- Total cell [3]: 5.9 ± 0.4 10^5/ml
- Live cell [4]: 5.1 ± 0.2 10^5/ml
- Total cell [4]: 6.1 ± 0.8 10^5/ml
- Live cell [5]: 5.5 ± 0.0 10^5/ml
- Total cell [5]: 6.1 ± 0.2 10^5/ml
- Live cell [6]: 6.3 ± 0.2 10^5/ml
- Total cell [6]: 7.4 ± 0.3 10^5/ml
- Live cell [7]: 6.7 ± 0.3 10^5/ml
- Total cell [7]: 7.8 ± 0.5 10^5/ml
- Live cell [8]: 5.0 10^5/ml
- Live cell (10^5/ml) [8]: 5.0 10^5/ml
- Live cell, Mean [8]: 5.0 10^5/ml
- Live cell (PBMC + test article 0.01 uM, no LPS, individual replicates (1st, 2nd)): 5.2 10^5/ml and 4.8 10^5/ml
- Live cell [9]: 5.2 10^5/ml and 4.8 10^5/ml
- Live cell (10^5/ml) [9]: 5.2 10^5/ml and 4.8 10^5/ml
- Live cell (PBMC + test article 0.01 uM, no LPS, single replicates (1st, 2nd)): 5.2 10^5/ml and 4.8 10^5/ml
- Live cell [10]: 5.1 10^5/ml
- Live cell (10^5/ml) [10]: 5.1 10^5/ml
- Live cell, Mean [10]: 5.1 10^5/ml
- Live cell (PBMC + test article 0.1 uM, no LPS, individual replicates (1st, 2nd)): 4.4 10^5/ml and 5.8 10^5/ml
- Live cell [11]: 4.4 10^5/ml and 5.8 10^5/ml
- Live cell (10^5/ml) [11]: 4.4 10^5/ml and 5.8 10^5/ml
- Live cell (PBMC + test article 0.1 uM, no LPS, single replicates (1st, 2nd)): 4.4 10^5/ml and 5.8 10^5/ml
- Live cell [12]: 5.5 10^5/ml
- Live cell (10^5/ml) [12]: 5.5 10^5/ml
- Live cell, Mean [12]: 5.5 10^5/ml
- Live cell (PBMC + test article 1 uM, no LPS, individual replicates (1st, 2nd)): 5.5 10^5/ml
- Live cell [13]: 5.5 10^5/ml
- Live cell (10^5/ml) [13]: 5.5 10^5/ml
- Live cell (PBMC + test article 1 uM, no LPS, single replicates (1st, 2nd)): 5.5 10^5/ml
- Live cell [14]: 6.3 10^5/ml
- Live cell (10^5/ml) [14]: 6.3 10^5/ml
- Live cell, Mean [14]: 6.3 10^5/ml
- Live cell (PBMC + test article 10 uM, no LPS, individual replicates (1st, 2nd)): 6.4 10^5/ml and 6.1 10^5/ml
- Live cell [15]: 6.4 10^5/ml and 6.1 10^5/ml
- Live cell (10^5/ml) [15]: 6.4 10^5/ml and 6.1 10^5/ml
- Live cell (PBMC + test article 10 uM, no LPS, single replicates (1st, 2nd)): 6.4 10^5/ml and 6.1 10^5/ml
- Live cell [16]: 6.7 10^5/ml
- Live cell (10^5/ml) [16]: 6.7 10^5/ml
- Live cell, Mean [16]: 6.7 10^5/ml
- Live cell (PBMC + test article 100 uM, no LPS, individual replicates (1st, 2nd)): 6.4 10^5/ml and 7.0 10^5/ml
- Live cell [17]: 6.4 10^5/ml and 7.0 10^5/ml
- Live cell (10^5/ml) [17]: 6.4 10^5/ml and 7.0 10^5/ml
- Live cell (PBMC + test article 100 uM, no LPS, single replicates (1st, 2nd)): 6.4 10^5/ml and 7.0 10^5/ml
- Live cell (PBMC without LPS, 0.01 uM, Mean): 5.0 10^5/ml
- Live cell (PBMC without LPS, 0.01 uM, single replicates): 5.2 10^5/ml and 4.8 10^5/ml
- Live cell (PBMC without LPS, 0.1 uM, Mean): 5.1 10^5/ml
- Live cell (PBMC without LPS, 0.1 uM, single replicates): 4.4 10^5/ml and 5.8 10^5/ml
- Live cell (PBMC without LPS, 1 uM, Mean): 5.5 10^5/ml
- Live cell (PBMC without LPS, 1 uM, single replicates): 5.5 10^5/ml
- Live cell (PBMC without LPS, 10 uM, Mean): 6.3 10^5/ml
- Live cell (PBMC without LPS, 10 uM, single replicates): 6.4 10^5/ml and 6.1 10^5/ml
- Live cell (PBMC without LPS, 100 uM, Mean): 6.7 10^5/ml
- Live cell (PBMC without LPS, 100 uM, single replicates): 6.4 10^5/ml and 7.0 10^5/ml
- Live cell [18]: 5.0 10^5/ml
- Total cell count [18]: 5.9 10^5/ml
- Live cell [19]: 5.2 10^5/ml and 4.8 10^5/ml
- Total cell count [19]: 6.3 10^5/ml and 5.5 10^5/ml
- Viability [19]: 83.0% and 87.0%
- Live cell [20]: 5.1 10^5/ml
- Total cell count [20]: 6.1 10^5/ml
- Viability [20]: 84.0%
- Live cell [21]: 4.4 10^5/ml and 5.8 10^5/ml
- Total cell count [21]: 5.2 10^5/ml and 6.9 10^5/ml
- Viability [21]: 84.0%
- Live cell [22]: 5.5 10^5/ml
- Total cell count [22]: 6.1 10^5/ml
- Live cell [23]: 5.5 10^5/ml
- Total cell count [23]: 5.9 10^5/ml and 6.3 10^5/ml
- Viability [23]: 92.0% and 87.0%
- Live cell [24]: 6.3 10^5/ml
- Total cell count [24]: 7.4 10^5/ml
- Live cell [25]: 6.4 10^5/ml and 6.1 10^5/ml
- Total cell count [25]: 7.6 10^5/ml and 7.1 10^5/ml
- Viability [25]: 85.0% and 87.0%
- Live cell [26]: 6.7 10^5/ml
- Total cell count [26]: 7.8 10^5/ml
- Live cell [27]: 6.4 10^5/ml and 7.0 10^5/ml
- Total cell count [27]: 7.3 10^5/ml and 8.2 10^5/ml
- Viability [27]: 88.0% and 85.0%
- viability / total number of PBMCs (in words) (up to 100 μM): didn't affect the basal levels of most of cytokine/chemokine production or the viability of hPBMCs; also recorded: didn't affect any viability or the total number of PBMCs
- which treatments consistently affected the total and live number of PBMCs or the percent viability (in words) (up to 100 μM, 24-hour treatment): none of
